Test results as given in patent publication US10766903B2 (ALMAC DISCOVERY LIMITED, priority 2016, dated 2020).

Target: USP7 (Homo sapiens (Human), UniProt Q93009)
Test: USP7 fluorescence polarisation (FP) biochemical assay, ubiquitin-Lys-TAMRA substrate
Details: Table 4, biochemical assay; average of at least duplicate experiments; read-out: USP7 IC50
Procedure, shortened: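 Full-length His6-USP7 (2.5 nM) incubated ± inhibitor (8-point dilutions, 200 to 0.1 μM before addition) in 50 mM HEPES pH 7.2, 150 mM NaCl, 0.5 mM EDTA, 5 mM DTT, 0.05% BSA, 0.05% CHAPS. Ubiquitin-Lys-TAMRA cleavage followed by FP (ex 530/em 575 nm) every 15 min for 1.5 h; normalised to no-compound control.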

USP7, sequence (Q93009 whole entry): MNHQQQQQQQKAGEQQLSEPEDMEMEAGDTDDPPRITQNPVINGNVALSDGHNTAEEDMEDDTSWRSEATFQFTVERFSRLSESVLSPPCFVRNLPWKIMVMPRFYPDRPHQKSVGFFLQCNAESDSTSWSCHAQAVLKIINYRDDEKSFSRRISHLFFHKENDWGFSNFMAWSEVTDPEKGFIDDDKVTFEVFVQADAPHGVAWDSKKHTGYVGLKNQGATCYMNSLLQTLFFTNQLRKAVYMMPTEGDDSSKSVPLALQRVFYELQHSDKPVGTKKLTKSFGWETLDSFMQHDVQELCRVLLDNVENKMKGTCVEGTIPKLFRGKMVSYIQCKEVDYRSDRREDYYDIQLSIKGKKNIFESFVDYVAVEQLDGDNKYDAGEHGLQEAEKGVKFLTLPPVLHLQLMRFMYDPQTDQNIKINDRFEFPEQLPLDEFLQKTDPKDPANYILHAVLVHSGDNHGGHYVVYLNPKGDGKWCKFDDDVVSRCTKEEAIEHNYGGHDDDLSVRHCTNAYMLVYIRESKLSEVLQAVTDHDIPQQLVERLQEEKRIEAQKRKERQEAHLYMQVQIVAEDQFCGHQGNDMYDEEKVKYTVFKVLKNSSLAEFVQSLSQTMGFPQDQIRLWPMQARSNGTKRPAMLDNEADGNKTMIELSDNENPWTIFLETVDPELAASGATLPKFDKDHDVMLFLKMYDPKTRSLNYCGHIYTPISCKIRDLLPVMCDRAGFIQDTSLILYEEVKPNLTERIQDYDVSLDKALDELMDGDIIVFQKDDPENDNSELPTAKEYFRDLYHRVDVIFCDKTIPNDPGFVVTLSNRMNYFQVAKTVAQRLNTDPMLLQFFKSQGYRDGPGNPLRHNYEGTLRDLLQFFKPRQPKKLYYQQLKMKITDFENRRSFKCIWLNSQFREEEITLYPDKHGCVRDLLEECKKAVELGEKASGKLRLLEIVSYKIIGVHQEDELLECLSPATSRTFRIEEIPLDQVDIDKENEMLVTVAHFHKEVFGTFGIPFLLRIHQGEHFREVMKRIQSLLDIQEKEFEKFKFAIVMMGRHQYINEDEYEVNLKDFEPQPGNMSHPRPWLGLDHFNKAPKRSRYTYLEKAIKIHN

Structure (SMILES) | IC50
O=C(c1cnc(C2CC2)o1)N1CCC(O)(Cn2cnc3c(cc(Cl)n3-c3ccc(C4CC4)cc3)c2=O)CC1 [Example 221, 6-Chloro-3-((1-(2-cyclopropyloxazole-5-carbonyl)-4-hydroxypiperidin-4-yl)methyl)-7-(4-cyclopropylphenyl)-3H-pyrrolo[2,3-d]pyrimidin-4(7H)-one] | < 250 nM
O=C(c1cnc(C2CC2)o1)N1CCC(O)(Cn2cnc3c(cc(Br)n3-c3ccccc3)c2=O)CC1 [Example 222, 6-Bromo-3-((1-(2-cyclopropyloxazole-5-carbonyl)-4-hydroxypiperidin-4-yl)methyl)-7-phenyl-3H-pyrrolo[2,3-d]pyrimidin-4(7H)-one] | < 250 nM
CC1(C(=O)N2CCC(O)(Cn3cnc4c(cc(Br)n4-c4ccccc4)c3=O)CC2)CC1 [Example 223, 6-Bromo-3-((4-hydroxy-1-(1-methylcyclopropanecarbonyl)piperidin-4-yl)methyl)-7-phenyl-3H-pyrrolo[2,3-d]pyrimidin-4(7H)-one] | < 250 nM
O=C(c1cnc(C2CC2)o1)N1CCC(O)(Cn2cnc3c(cc(I)n3-c3ccccc3)c2=O)CC1 [Example 224, 3-((1-(2-Cyclopropyloxazole-5-carbonyl)-4-hydroxypiperidin-4-yl)methyl)-6-iodo-7-phenyl-3H-pyrrolo[2,3-d]pyrimidin-4(7H)-one] | < 250 nM
CC1(C(=O)N2CCC(O)(Cn3cnc4c(cc(Cl)n4-c4cccc(-n5cc(C(F)(F)F)cn5)c4)c3=O)CC2)CC1 [Example 225, 6-Chloro-3-((4-hydroxy-1-(1-methylcyclopropanecarbonyl)piperidin-4-yl)methyl)-7-(3-(4-(trifluoromethyl)-1H-pyrazol-1-yl)phenyl)-3H-pyrrolo[2,3-d]pyrimidin-4(7H)-one] | 1000 to 200000 nM
CC1(C(=O)N2CCC(O)(Cn3cnc4c(cc(Cl)n4-c4cccc(N5CCOCC5)c4)c3=O)CC2)CC1 [Example 226, 6-Chloro-3-((4-hydroxy-1-(1-methylcyclopropanecarbonyl)piperidin-4-yl)methyl)-7-(3-morpholinophenyl)-3H-pyrrolo[2,3-d]pyrimidin-4(7H)-one] | < 250 nM
CC1(C(=O)N2CCC(O)(Cn3cnc4c(cc(Cl)n4-c4cccc(-n5cc(F)cn5)c4)c3=O)CC2)CC1 [Example 227, 6-Chloro-7-(3-(4-fluoro-1H-pyrazol-1-yl)phenyl)-3-((4-hydroxy-1-(1-methylcyclopropanecarbonyl)piperidin-4-yl)methyl)-3H-pyrrolo[2,3-d]pyrimidin-4(7H)-one] | < 250 nM
O=C(c1cnc(C2CC2)o1)N1CCC(O)(Cn2cnc3c(cc(Cl)n3-c3ccc(Cl)cc3)c2=O)CC1 [Example 228, 6-Chloro-7-(4-chlorophenyl)-3-((1-(2-cyclopropyloxazole-5-carbonyl)-4-hydroxypiperidin-4-yl)methyl)-3H-pyrrolo[2,3-d]pyrimidin-4(7H)-one] | < 250 nM
Cn1cc(C(=O)N2CCC(O)(Cn3cnc4c(cc(Cl)n4-c4ccc(Cl)cc4)c3=O)CC2)cn1 [Example 229, 6-Chloro-7-(4-chlorophenyl)-3-((4-hydroxy-1-(1-methyl-1H-pyrazole-4-carbonyl)piperidin-4-yl)methyl)-3H-pyrrolo[2,3-d]pyrimidin-4(7H)-one] | 250 to 999 nM
Cn1nccc1-c1cc(-n2c(Cl)cc3c(=O)n(CC4(O)CCN(C(=O)c5cnc(C6CC6)o5)CC4)cnc32)ccc1F [Example 230, 6-Chloro-3-((1-(2-cyclopropyloxazole-5-carbonyl)-4-hydroxypiperidin-4-yl)methyl)-7-(4-fluoro-3-(1-methyl-1H-pyrazol-5-yl)phenyl)-3H-pyrrolo[2,3-d]pyrimidin-4(7H)-one] | 250 to 999 nM
Cn1nccc1-c1cc(-n2c(Cl)cc3c(=O)n(CC4(O)CCN(C(=O)C5(C)CC5)CC4)cnc32)ccc1F [Example 231, 6-Chloro-7-(4-fluoro-3-(1-methyl-1H-pyrazol-5-yl)phenyl)-3-((4-hydroxy-1-(1-methylcyclopropanecarbonyl)piperidin-4-yl)methyl)-3H-pyrrolo[2,3-d]pyrimidin-4(7H)-one] | 250 to 999 nM
